Data as given in patent US8349553B2, “Jasmonate based assays for identifying compounds that selectively inhibit mitochondrial bound hexokinases” (Ramot at Tel Aviv University Ltd., priority 2007, dated 2013).

Legend:
[1] = molecular target: T1, mitochondria-bound hexokinase (mitochondrial fraction isolated from mouse brain) (Mus musculus, UniProt P17710); assay: Hexokinase detachment assay, mitochondrial fraction of mouse brain; assay type: biochemical
T1 construct: detach hexokinase from mitochondrial fraction isolated from mouse brain; from tissue; host or cells: mouse brain (mitochondrial fraction)
T1 sequence (P17710 1-918 isoform P17710-3): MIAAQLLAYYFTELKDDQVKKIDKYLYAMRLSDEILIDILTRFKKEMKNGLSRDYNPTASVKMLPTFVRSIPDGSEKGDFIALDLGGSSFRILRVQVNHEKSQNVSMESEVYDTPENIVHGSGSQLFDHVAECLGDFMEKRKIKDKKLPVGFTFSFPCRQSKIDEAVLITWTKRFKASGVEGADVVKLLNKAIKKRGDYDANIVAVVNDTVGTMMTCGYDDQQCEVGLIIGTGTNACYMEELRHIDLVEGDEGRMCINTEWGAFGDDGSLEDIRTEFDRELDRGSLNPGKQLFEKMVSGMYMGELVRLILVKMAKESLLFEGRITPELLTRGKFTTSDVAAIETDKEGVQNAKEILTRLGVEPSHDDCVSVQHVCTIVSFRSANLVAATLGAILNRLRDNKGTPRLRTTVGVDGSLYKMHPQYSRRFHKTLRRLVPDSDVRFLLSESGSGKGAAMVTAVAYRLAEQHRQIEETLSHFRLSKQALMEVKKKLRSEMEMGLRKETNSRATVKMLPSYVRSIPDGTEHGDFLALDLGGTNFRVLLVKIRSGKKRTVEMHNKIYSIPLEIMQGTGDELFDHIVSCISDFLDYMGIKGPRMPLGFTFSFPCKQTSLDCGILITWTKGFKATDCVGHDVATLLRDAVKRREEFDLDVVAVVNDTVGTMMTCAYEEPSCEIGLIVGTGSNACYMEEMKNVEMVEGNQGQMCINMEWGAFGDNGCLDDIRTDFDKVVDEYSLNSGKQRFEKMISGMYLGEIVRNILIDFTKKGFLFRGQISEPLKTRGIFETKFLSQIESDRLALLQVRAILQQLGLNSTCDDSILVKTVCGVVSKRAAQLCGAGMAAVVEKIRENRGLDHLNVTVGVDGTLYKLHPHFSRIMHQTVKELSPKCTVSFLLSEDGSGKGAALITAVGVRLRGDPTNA
Experimental: To determine the amount of hexokinase detached from the mitochondrial fraction by different agents, mitochondria were incubated with the agent of interest and pelleted by centrifugation. Activity of hexokinase in the supernatant (i.e., activity of the detached hexokinase) was determined spectrophotometrically at 340 nm. The reaction couples the ADP formation by hexokinase, consuming the ADP for pyruvate formation by pyruvate kinase, and reducing the pyruvate with NADH by lactate dehydrogenase. Briefly, mitochondria were suspended in incubation buffer (HEPES pH 7.4 20 mM, Sucrose 0.25M, Glucose 10 mM, KCl5 mM, MgCl2 10 mM; 0.2 mg/test, 100 μL/test) and incubated as described below. Mitochondria-bound hexokinase was precipitated by centrifugation at 20,000 g for 10 minutes at 4° C. The activity of hexokinase in the supernatant fraction was assayed in reaction buffer (250 μL; HEPES pH 7.2 20 mM, MgCl2 5 mM, KCl 5 mM, glucose 10 mM) freshly supplemented with pyruvate kinase (1 U/ml), lactate dehydrogenase (1 U/ml), ATP (1 mM), phospho(enol)pyruvate (1 mM), NADH (0.18 mg/ml). […] Mitochondrial fractions were incubated for either 10, 30 or 60 minutes at 37° C. The activity of unbound hexokinase was measured and compared to the activity of spontaneously (control) detached hexokinase.

[2] = test system: mitochondrial fraction of mouse liver; assay: Mitochondrial swelling assay, mouse liver; assay type: biochemical; settings: 1 mM
Experimental: Freshly isolated mitochondrial fraction was washed with extraction buffer to remove EDTA and resuspended in swelling buffer (Mannitol 220 mM, Sucrose 70 mM, Tris, pH 7.2, 150 mM, KH2PO4, pH 7.2, 0.2 mM; 0.2 mg in 100 μL) freshly supplemented with potassium succinate, pH 7.2, 5 mM. Every component was sodium-free. Optical density was monitored at the wave length of 540 nm for 2-5 minutes before the addition of the examined reagents, e.g. methyl jasmonate, and for additional 20 minutes afterwards.
In order to examine the consistency of the relationship between the ability of methyl jasmonate to detach bound hexokinase and mitochondrial damage, methyl jasmonate was tested in mouse brain in comparison to mouse liver. The comparison was performed due to known differences of mitochondrial hexokinase content between mouse brain vs. its liver. It is well established in the art that brain mitochondrial fraction is rich in bound hexokinase, while liver mitochondrial fraction is essentially devoid of it (Wilson, 1995). […] Mitochondrial fractions were incubated for either 10, 30 or 60 minutes at 37° C. The activity of unbound hexokinase was measured and compared to the activity of spontaneously (control) detached hexokinase. Consequently, the ability of methyl jasmonate to induce swelling in mitochondrial fraction isolated from mouse brain and liver was tested.

[3] = molecular target: T2, voltage-dependent anion channel (Rattus norvegicus, UniProt Q9Z2L0); assay: Voltage-dependent anion channel recording in planar lipid bilayer (channel alone); assay type: biochemical; settings: 3 mM; voltage stepped from 0 mV to −40 mV
T2 construct: purified mitochondrial voltage-dependent anion channel reconstituted into a planar lipid bilayer; from tissue; host or cells: rat liver mitochondria
T2 sequence (Q9Z2L0 whole entry): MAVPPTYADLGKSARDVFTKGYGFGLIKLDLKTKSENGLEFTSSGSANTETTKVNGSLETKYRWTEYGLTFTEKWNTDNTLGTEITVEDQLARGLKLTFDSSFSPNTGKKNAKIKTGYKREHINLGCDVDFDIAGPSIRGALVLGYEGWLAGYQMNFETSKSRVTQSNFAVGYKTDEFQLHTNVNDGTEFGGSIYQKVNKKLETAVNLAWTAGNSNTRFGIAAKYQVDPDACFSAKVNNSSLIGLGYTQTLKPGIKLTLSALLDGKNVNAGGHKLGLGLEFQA
Experimental: Currents were measured with respect to the trans side of the membrane (ground).

[4] = test system: mitochondria-bound hexokinase (mitochondrial fraction from a CT-26 tumor); assay: Hexokinase detachment assay, mitochondrial fraction of CT-26 tumor; assay type: biochemical, murine; settings: CT-26 tumor mitochondrial fraction
Experimental: Mitochondrial fraction was prepared by mechanical lysis and differential centrifugation. All stages were performed on ice. Cells or extracted tissues were washed with PBS and disrupted by homogenization in extraction buffer (Sucrose 250 mM, HEPES-NaOH 10 mM, pH 7.2) freshly supplemented with 0.1 mM EDTA and Protease Inhibitors cocktail (Sigma). For each gram of cells or tissue, 4 volumes of extraction buffer were applied. The homogenate volume was doubled with the extraction buffer, and tissue and cell debris as well as nuclei were pelleted by centrifugation of 1,000 g for 10 minutes. The supernatant was further spun at 13,000 g for 10 minutes twice. Endoplasmic reticulum layer was removed. The pellet, designated as the mitochondrial fraction, was suspended in the appropriate buffer, depending on the assay for which the mitochondrial fraction was prepared. Mitochondrial fractions were used immediately or stored at −196° C.
To determine the amount of hexokinase detached from the mitochondrial fraction by different agents, mitochondria were incubated with the agent of interest and pelleted by centrifugation. Activity of hexokinase in the supernatant (i.e., activity of the detached hexokinase) was determined spectrophotometrically at 340 nm. The reaction couples the ADP formation by hexokinase, consuming the ADP for pyruvate formation by pyruvate kinase, and reducing the pyruvate with NADH by lactate dehydrogenase. Briefly, mitochondria were suspended in incubation buffer (HEPES pH 7.4 20 mM, Sucrose 0.25M, Glucose 10 mM, KCl5 mM, MgCl2 10 mM; 0.2 mg/test, 100 μL/test) and incubated as described below. […]
Methyl jasmonate perturbs mitochondria directly in a PTPC-dependent manner (Rotem, 2005). In order to determine whether methyl jasmonate is able to detach hexokinase from mitochondrial fraction isolated from CT-26 tumors, the activity of hexokinase in the supernatant of mitochondrial fraction treated for different time periods was measured. […] The activity of unbound hexokinase was measured and compared to the activity of spontaneously detached hexokinase (control).

[5] = test system: HKI and HKII (mitochondrial fraction of BCL-1); assay: Western blot of supernatants with anti-HKI and anti-HKII, BCL-1 mitochondrial fraction; assay type: biochemical, murine; settings: BCL-1 mitochondrial fraction supernatant
Experimental: For analysis of hexokinase levels, the experiments were performed similarly to hexokinase detachment assay described above, and unbound hexokinase in the supernatant fraction was extracted as described in Fingrut (2005). Samples were separated by sodium dodecylsulfate-polyacrylamide gel (7%) electrophoresis followed by immunoblotting. The blots were probed with specific anti-HKI or anti-HKII antibodies (1:300, Santa-Cruz Biotechnology, CA, USA). Hexokinase-antibody complexes were stained with HRP-conjugated antibody (1:10,000, Santa-Cruz Biotechnology, CA, USA). Enhanced chemiluminescence (ECL) reagent (Biological Industries, Beit Haemek, Israel) was added, and the blots were exposed to ECL film (Eastman Kodak, Rochester, N.Y., USA). Hexokinase detachment from mitochondrial fraction is not limited to CT-26 colon carcinoma. Mitochondrial fractions isolated from different cancer cells, namely Molt-4 cells, BCL-1 leukemic cells and B16 melanoma tumors were incubated for 30 minutes at 37° C., and the activity of unbound hexokinase was measured and compared to the activity of spontaneously (control) detached hexokinase. […] The supernatant of the experiments were separated on SDS-PAGE and probed with anti-HKI and anti-HKII antibodies.

Molt-4 cells = assay: Trypan blue exclusion test, Molt-4; assay type: cell-based, human; settings: 3 mM, 1 hour
Experimental: Cell death was determined by trypan blue exclusion. […] Alternatively, cytotoxicity was determined using hemacolor staining. […] In order to test the correlation between cellular ATP levels and the release of hexokinase from mitochondrial fraction different cancer cells, namely Molt-4 cells, BCL-1 leukemic cells and B16 melanoma tumors were exposed to various methyl jasmonate concentrations. […] CT26 and Molt-4 cells were then seeded in 24 well plates. CT26 cells were allowed to adhere over night. Cells were exposed to methyl jasmonate (MJ; 3 mM) for 1 hour. Trypan blue exclusion test was performed and cells were counted.

[6] = 3 mM, 10, 30 or 60 minutes at 37° C.

For `CC/C=C\CC1C(=O)CCC1CC(=O)OC` (stereo not drawn) [methyl jasmonate], the “detachment of hexokinase, time dependence” value [1, 6] was “time-dependent”, the “detachment of hexokinase, dose dependence” value ([1]; 30 minutes of incubation) was “dose dependent” and the “mitochondrial swelling (optical density at 540 nm)” value [2] was “not in liver”. The “current passing through voltage-dependent anion channel (no hexokinase)” value [3] was “showed no effect on the current passing through voltage-dependent anion channel”, the “detachment of hexokinase (activity of unbound hexokinase compared to spontaneously detached control), time course” value [4, 6] was “detached hexokinase in a time-dependent manner” and the “detachment of hexokinase (activity of unbound hexokinase compared to control), dose dependence” value ([4]; 30 minutes of incubation) was “dose-dependent”. The “detachment of hexokinase confirmed by immunoblot (anti-HKI, anti-HKII)” value [5] was “detachment of hexokinase from mitochondrial fraction of the various cancer cells was further confirmed”, the “sensitivity of Molt-4 relative to CT26 cells” value (Molt-4 cells) was “showed increased sensitivity with respect to CT26 tumor cells” and the “live/dead cells by Trypan blue exclusion” value (Molt-4 cells; Molt-4) was “still alive after 60 minutes”.
